The nature of this data set: In vivo oral absorption screen / pharmacokinetic assay in the rat. The conditions noted are these: male, Sprague Dawley, rat plasma, dose of 5 mg/kg in Methocel:Tween20 (0.5%:0.3%), read-out: area under the curve (AUC). From the text:
More explicitly, the following assay, an in vivo oral absorption screen, was used to determine plasma levels of test compounds in a rat after oral administration: The selection of compounds to be pooled into a “cassette” was based on their structural similarity and physicochemical properties. A solid phase extraction method applicable to all the selected compounds was established. Based on the initial testing where each compound was spiked into rat plasma and run through HPLC or HPLC/MS at a concentration of 0.5 μM, the retention time, ionic mass, and the possible separation among compounds by HPLC and/or HPLC/MS were used as basis for pooling 3–4 compounds into one “cassette”. Each “cassette” contains 3–4 compounds at 5 or 4 mg/kg for each compound. The cassettes were prepared as an oral suspension in 0.5% aqueous methylcellulose and 0.3% of polyoxyethylene (20) sorbiton monooleate (Tween-80). The dosing volume was 10 ml/kg via oral gavage. Male Sprague Dawley rats were fasted overnight in individual cages, with access to aqueous 10% dextrose. Two rats were dosed with each “cassette”. Plasma samples (˜1 ml) were collected at 1 and 2 h post-dosing from the 2 rats and pooled for extraction and analysis. […] Samples were analyzed by HPLC and HPLC/MS for comparison purpose. […]

Regarding `COc1ccc2c(O[C@@H]3C[C@H]4C(=O)N[C@]5(C(=O)O)C[C@H]5/C=C\CCCCC[C@H](NC(=O)OC5CCCC5)C(=O)N4C3)cc(-c3csc(NC4CCCC4)n3)nc2c1` [Compound 101], the AUC was 16 µM·h.
The figure for `COc1ccc2c(O[C@@H]3C[C@H]4C(=O)N[C@]5(C(=O)O)C[C@H]5/C=C\CCCCC[C@H](NC(=O)OC5CCCC5)C(=O)N4C3)cc(-c3csc(NC4CCCCC4)n3)nc2c1` [Compound 102] is 18 µM·h.

Values taken from patent publication US7119072B2, “Macrocyclic peptides active against the hepatitis C virus” (Boehringer Ingelheim (Canada) Ltd., priority 2002, dated 2006).
